Reference: patent publication US20240299376A1, “METHOD OF TREATING A CONDITION USING A […] EFFECTIVE DOSE OF 1-(1-OXO-1,2-DIHYDROISOQUINOLIN-5-YL)-5-(TRIFLUOROMETHYL)-N-(2-(TRIFLUOROMETHYL)PYRIDIN-4-YL)-1H-PYRAZOLE-4-CARBOXAMIDE” (Janssen Pharmaceutica NV, priority 2021, published 2024)
Where two headings read alike, the source gives them in different places.

Key:
[1] = FIH study 67856633LYM1001 plasma pharmacokinetics; format: in vivo, human; details: human, plasma
Excerpt: The study consists of a dose escalation phase (Part 1), to determine the recommended Phase 2 dose(s) (RP2D[s]), followed by an expansion phase at the RP2D(s) (Part 2). The dose escalation phase is supported using an adaptive dose escalation strategy guided by the modified continual reassessment method (mCRM) based on a Bayesian Logistic Regression Model (BLRM) with escalation with overdose control (EWOC) principle. The mCRM design allows the use of all cumulative dose-limiting toxicities (DLT) data up to the current dose cohort.
In Part 1, subjects were enrolled in cohorts of daily oral doses at 50 mg, 100 mg, 200 mg (1×200 mg or 4×50 mg), 300 mg (3×100 mg or 6×50 mg), 400 mg (2×200 mg or 8×50 mg), and 600 mg (3×200 mg), and loading dosing cohorts—400 mg loading dose once daily for 14 days, followed by 300 mg once daily, and 300 mg loading dose twice daily for 7 days followed by 300 mg once daily. In Part 2, subjects received daily oral doses of 300 mg.
In Part 1, PK data were available in subjects receiving doses of 50 mg (1×50 mg), 100 mg (2×50 mg), 200 mg (4×50 mg or 1×200 mg), 300 mg (6×50 mg or 3×100 mg), 400 mg (8×50 mg or 2×200 mg), and 600 mg (3×200 mg). Pharmacokinetic data were also available from the loading dose regimens of 400 mg (8×50 mg) loading dose once daily for 14 days followed by 300 mg (6×50 mg) once daily, and 300 mg (6×50 mg) loading dose twice daily for 7 days followed by 300 mg (6×50 mg) once daily.

Single IV dose plasma PK = format: in vivo, dog
Experimental: Single intravenous (IV) dose PK was conducted in mice (two strains), rats, monkeys, and dogs at a dose of 1 mg/kg in 70% PEG400 (PEG400/water 70:30) by bolus injection. The time course for plasma sample was optimized to fully characterize the disposition profile in each species. PK analysis was by non-compartmental method.

[2] = male, plasma, Dog, beagle, 3M, 1 mg/kg IV in 70% PEG400, mean

O=C(Nc1ccnc(C(F)(F)F)c1)c1cnn(-c2cccc3c(=O)[nH]ccc23)c1C(F)(F)F [Compound A, 1-(1-oxo-1,2-dihydroisoquinolin-5-yl)-5-(trifluoromethyl)-N-[2-(trifluoromethyl)pyridin-4-yl]-1H-pyrazole-4-carboxamide]
Cmax ([1]; oral, 200 mg, Cycle 1 Day 1, 50 mg capsule, cohort 4 × 50 mg, Subject 100032 excluded, mean, read-out: Cmax): 6750 ng/mL | Tmax ([1]; oral, 200 mg, Cycle 1 Day 1, 50 mg capsule, cohort 4 × 50 mg, Subject 100032 excluded, median, read-out: Tmax): 4 h | AUC ([1]; oral, 200 mg, Cycle 1 Day 1, 200 mg capsule, cohort 200 mg, mean, read-out: AUCτ): 61.9 µg·h/mL | Cmax ([1]; oral, 200 mg, Cycle 1 Day 1, 200 mg capsule, cohort 200 mg, mean, read-out: Cmax): 4060 ng/mL | Tmax ([1]; oral, 200 mg, Cycle 1 Day 1, 200 mg capsule, cohort 200 mg, median, read-out: Tmax): 4 h | AUC ([1]; oral, 200 mg, Cycle 1 Day 1, cohort 4 × 50 mg, with Subject 100032 data included, read-out: mean AUC): 139 µg·h/mL | Cmax ([1]; oral, 200 mg, Cycle 1 Day 1, cohort 4 × 50 mg, with Subject 100032 data included, read-out: mean Cmax): 8060 ng/mL | AUC ([1]; oral, 200 mg, Cycle 2 Day 1, 50 mg capsule, cohort 4 × 50 mg, Subject 100032 excluded, mean, read-out: AUCτ): 882 µg·h/mL | Cmax ([1]; oral, 200 mg, Cycle 2 Day 1, 50 mg capsule, cohort 4 × 50 mg, Subject 100032 excluded, mean, read-out: Cmax): 44800 ng/mL | Tmax ([1]; oral, 200 mg, Cycle 2 Day 1, 50 mg capsule, cohort 4 × 50 mg, Subject 100032 excluded, median, read-out: Tmax): 2 h | Cmax ([1]; oral, 200 mg, Cycle 2 Day 1, 200 mg capsule, cohort 200 mg, individual values, N = 2, read-out: Cmax): 25700 ng/mL | AUC ([1]; oral, 200 mg, Cycle 2 Day 1, 200 mg capsule, cohort 200 mg, read-out: AUCτ): 453 µg·h/mL | AUC ([1]; oral, 200 mg, Cycle 2 Day 1, cohort 4 × 50 mg, with Subject 100032 data included, read-out: mean AUC): 1140 µg·h/mL | Cmax ([1]; oral, 200 mg, Cycle 2 Day 1, cohort 4 × 50 mg, with Subject 100032 data included, read-out: mean Cmax): 58200 ng/mL | AUC ([1]; oral, 300 mg, Cycle 1 Day 1, 50 mg capsule, cohort 6 × 50 mg (300 mg QD), mean, n = 9, read-out: AUCτ): ~152 µg·h/mL | Cmax ([1]; oral, 300 mg, Cycle 1 Day 1, 50 mg capsule, cohort 6 × 50 mg (300 mg QD), mean, read-out: Cmax): ~8810 ng/mL | Tmax ([1]; oral, 300 mg, Cycle 1 Day 1, 50 mg capsule, cohort 6 × 50 mg (300 mg QD), median, read-out: Tmax): ~4 h | Cmax ([1]; oral, 300 mg, Cycle 1 Day 1, cohort 6 × 50 mg BID > QD (300 mg BID 7 days then 300 mg QD), mean, read-out: Cmax): 4310 ng/mL | Tmax ([1]; oral, 300 mg, Cycle 1 Day 1, cohort 6 × 50 mg BID > QD (300 mg BID 7 days then 300 mg QD), median, read-out: Tmax): ~6 h | AUC ([1]; oral, 300 mg, Cycle 2 Day 1, 50 mg capsule, cohort 6 × 50 mg (300 mg QD), mean, read-out: AUCτ): ~1140 µg·h/mL | Cmax ([1]; oral, 300 mg, Cycle 2 Day 1, 50 mg capsule, cohort 6 × 50 mg (300 mg QD), mean, read-out: Cmax): ~55200 ng/mL | Tmax ([1]; oral, 300 mg, Cycle 2 Day 1, 50 mg capsule, cohort 6 × 50 mg (300 mg QD), median, read-out: Tmax): ~4 h | Tmax ([1]; oral, 300 mg, Cycle 2 Day 1, cohort 6 × 50 mg BID > QD, individual values, N = 2, read-out: Tmax): ~3 h | AUC ([1]; oral, 400 mg, Cycle 1 Day 1, 50 mg capsule, cohort 8 × 50 mg, mean, read-out: AUCτ): 131 µg·h/mL | Cmax ([1]; oral, 400 mg, Cycle 1 Day 1, 50 mg capsule, cohort 8 × 50 mg, mean, read-out: Cmax): 7560 ng/mL | Tmax ([1]; oral, 400 mg, Cycle 1 Day 1, 50 mg capsule, cohort 8 × 50 mg, median, read-out: Tmax): 3 h | AUC ([1]; oral, 400 mg, Cycle 1 Day 1, 200 mg capsule, cohort 2 × 200 mg food adlib, mean, read-out: AUCτ): 112 µg·h/mL | Cmax ([1]; oral, 400 mg, Cycle 1 Day 1, 200 mg capsule, cohort 2 × 200 mg food adlib, mean, read-out: Cmax): 6830 ng/mL | Tmax ([1]; oral, 400 mg, Cycle 1 Day 1, 200 mg capsule, cohort 2 × 200 mg food adlib, median, read-out: Tmax): 4.5 h | AUC ([1]; oral, 400 mg, Cycle 1 Day 1, 200 mg capsule, cohort 2 × 200 mg, mean, read-out: AUCτ): 68 µg·h/mL | Cmax ([1]; oral, 400 mg, Cycle 1 Day 1, 200 mg capsule, cohort 2 × 200 mg, mean, read-out: Cmax): 4190 ng/mL | Tmax ([1]; oral, 400 mg, Cycle 1 Day 1, 200 mg capsule, cohort 2 × 200 mg, median, read-out: Tmax): 5 h | AUC ([1]; oral, 400 mg, Cycle 1 Day 1, cohort 8 × 50 mg > 6 × 50 mg (400 mg QD loading 14 days then 300 mg QD), Subject 100070 excluded, mean, read-out: AUCτ): 186 µg·h/mL | Cmax ([1]; oral, 400 mg, Cycle 1 Day 1, cohort 8 × 50 mg > 6 × 50 mg (400 mg QD loading 14 days then 300 mg QD), Subject 100070 excluded, mean, read-out: Cmax): 10300 ng/mL | Tmax ([1]; oral, 400 mg, Cycle 1 Day 1, cohort 8 × 50 mg > 6 × 50 mg (400 mg QD loading 14 days then 300 mg QD), median, read-out: Tmax): 3 h | AUC ([1]; oral, 400 mg, Cycle 1 Day 1, cohort 8 × 50 mg > 6 × 50 mg, with Subject 100070 data included, read-out: mean AUC): 237 µg·h/mL | Cmax ([1]; oral, 400 mg, Cycle 1 Day 1, cohort 8 × 50 mg > 6 × 50 mg, with Subject 100070 data included, read-out: mean Cmax): 12800 ng/mL | AUC ([1]; oral, 400 mg, Cycle 2 Day 1, 50 mg capsule, cohort 8 × 50 mg, mean, read-out: AUCτ): 1590 µg·h/mL | Cmax ([1]; oral, 400 mg, Cycle 2 Day 1, 50 mg capsule, cohort 8 × 50 mg, mean, read-out: Cmax): 94100 ng/mL | Tmax ([1]; oral, 400 mg, Cycle 2 Day 1, 50 mg capsule, cohort 8 × 50 mg, median, read-out: Tmax): 3.5 h | AUC ([1]; oral, 400 mg, Cycle 2 Day 1, 200 mg capsule, cohort 2 × 200 mg food adlib, mean, read-out: AUCτ): 1330 µg·h/mL | Cmax ([1]; oral, 400 mg, Cycle 2 Day 1, 200 mg capsule, cohort 2 × 200 mg food adlib, mean, read-out: Cmax): 72300 ng/mL | Tmax ([1]; oral, 400 mg, Cycle 2 Day 1, 200 mg capsule, cohort 2 × 200 mg food adlib, median, read-out: Tmax): 8 h | AUC ([1]; oral, 400 mg, Cycle 2 Day 1, 200 mg capsule, cohort 2 × 200 mg, mean, read-out: AUCτ): 824 µg·h/mL | Cmax ([1]; oral, 400 mg, Cycle 2 Day 1, 200 mg capsule, cohort 2 × 200 mg, mean, read-out: Cmax): 43200 ng/mL | Tmax ([1]; oral, 400 mg, Cycle 2 Day 1, 200 mg capsule, cohort 2 × 200 mg, median, read-out: Tmax): 3 h | AUC ([1]; oral, 600 mg, Cycle 1 Day 1, 200 mg capsule, cohort 3 × 200 mg, individual values, N = 2, read-out: AUCτ): 123 µg·h/mL | Cmax ([1]; oral, 600 mg, Cycle 1 Day 1, 200 mg capsule, cohort 3 × 200 mg, individual values, N = 2, read-out: Cmax): 7790 ng/mL | Tmax ([1]; oral, 600 mg, Cycle 1 Day 1, 200 mg capsule, cohort 3 × 200 mg, individual values, N = 2, read-out: Tmax): 3 h | Cmax ([1]; oral, Cycle 2 Day 1, cohort 8 × 50 mg > 6 × 50 mg (400 mg QD loading 14 days then 300 mg QD), Subject 100070 excluded, mean, read-out: Cmax): 72200 ng/mL | AUC ([1]; oral, Cycle 2 Day 1, cohort 8 × 50 mg > 6 × 50 mg, Subject 100070 excluded, mean, read-out: AUCτ): 1700 µg·h/mL | Tmax ([1]; oral, Cycle 2 Day 1, cohort 8 × 50 mg > 6 × 50 mg, Subject 100070 excluded, median, read-out: Tmax): 3 h | AUC ([1]; oral, Cycle 2 Day 1, cohort 8 × 50 mg > 6 × 50 mg, with Subject 100070 data included, read-out: mean AUC): 1810 µg·h/mL | Cmax ([1]; oral, Cycle 2 Day 1, cohort 8 × 50 mg > 6 × 50 mg, with Subject 100070 data included, read-out: mean Cmax): 79700 ng/mL | Tmax ([1]; po, 50 mg, Cycle 2 Day 1, 50 mg capsule, oral daily administration, read-out: median Tmax): 2 to 4 h | Tmax ([1]; po, 200 mg, Cycle 2 Day 1, 200 mg capsule, oral daily administration, read-out: median Tmax): 3 to 8 h | Tmax ([1]; po, first oral dose at Cycle 1 Day 1, doses of 50 to 600 mg, read-out: median Tmax): 3 to 6 h | CL as fraction of liver blood flow (LBF) (Single IV dose plasma PK; dog, LBF 30.9 mL/min/kg): 3.0% | AUC(0-inf) (Single IV dose plasma PK; [2]): 23.1 µg·h/mL | C0 (Single IV dose plasma PK; [2]): 2070 ng/mL | clearance (Single IV dose plasma PK; [2]): 0.772 mL/min/kg | half-life (Single IV dose plasma PK; [2]): 16.9 h | Vd (Single IV dose plasma PK; male, plasma, Dog, beagle, 3M, 1 mg/kg IV in 70% PEG400, mean, read-out: Vdss): 1.01 L/kg
